Drawing on ChEMBL document CHEMBL1687787, “Emergence and Distribution of Plasmids Bearing the blaOXA-51-like gene with an upstream ISAba1 in carbapenem-resistant Acinetobacter baumannii isolates in Taiwan” (2010), this text covers Activity and MIC for two compounds.

Molecules are shown by their SMILES. In brackets after ≈: the same amount, converted by molar mass. Activity calls are given as the source filed them. The calls are words filed in the database; no cut-off is given here.

In assay [1] the test system is Acinetobacter baumannii. Description: Antimicrobial activity against Acinetobacter baumannii clinical isolate harboring plasmid encoded ISAba1-blaOXA-51-like gene with nuc upstream sequence by agar dilution method in presence of Tazobactam. Format: functional, organism-based. For orientation: In agar dilution, organisms are placed on agar that contains the substance at set levels.

In assay [2] the test system is Acinetobacter baumannii. Kind of assay: Antimicrobial activity against Acinetobacter baumannii clinical isolate harboring chromosomally encoded ISAba1-blaOXA-51-like gene with fxsA upstream sequence by agar dilution method in presence of Tazobactam. Format: functional, organism-based.
The subject of assay [3] is Acinetobacter baumannii. Kind of assay: Antimicrobial activity against Acinetobacter baumannii ATCC 15151 by agar dilution method. Format: functional.
For assay [4], the system named is Acinetobacter baumannii. Kind of assay: Antimicrobial activity against Acinetobacter baumannii ATCC 15151 transformed with shuttle vector carrying beta-lactamase OXA-82 by agar dilution method. It is filed as functional.
The subject of assay [5] is Acinetobacter baumannii. Description: Antimicrobial activity against Acinetobacter baumannii F-type isolate transformed with plasmid harboring ISAba1-blaOXA-82 by agar dilution method.
Assay [6] relates to Acinetobacter baumannii. Description: Antimicrobial activity against Acinetobacter baumannii F-type isolate by agar dilution method. It is filed as functional.
Assay [7] concerns Acinetobacter baumannii. Kind of assay: Antimicrobial activity against Acinetobacter baumannii ATCC 15151 transformed with plasmid harboring ISAba1-blaOXA-82 by agar dilution method. Format: functional.

In the case of `CCN1CCN(C(=O)N[C@@H](C(=O)N[C@@H]2C(=O)N3[C@@H]2SC(C)(C)[C@@H]3C(=O)O)c2ccccc2)C(=O)C1=O`, the outcome with Acinetobacter baumannii [1] and in the assay on Acinetobacter baumannii [2] was inactive.
For the compound `C[C@@H](O)[C@H]1C(=O)N2C(C(=O)O)=C(SCCNC=N)C[C@H]12` [IMIPENEM ANHYDROUS], the MIC in the assay on Acinetobacter baumannii [3] amounted to 0.5 mg/L (≈ 1.67 µM); in the assay on Acinetobacter baumannii [4], 2 mg/L (≈ 6.68 µM); against Acinetobacter baumannii [5] it was 64 mg/L (≈ 214 µM); against Acinetobacter baumannii [6], 4 mg/L (≈ 13.4 µM); against Acinetobacter baumannii [7], 32 mg/L (≈ 107 µM).

Usually MIC stands for the lowest concentration that inhibits growth of the organism. Low readings indicate greater potency, high ones weaker potency.
